In patent US20250285714A1, “A PHARMACEUTICAL PLATFORM TECHNOLOGY FOR DRUG DISCOVERY AND CONSUMER HEALTH PRODUCT DEVELOPMENT” (SINOVEDA CANADA INC., priority 2021, published 2025):

What was measured:
[1] = human
From the text: An inhouse physiologically based pharmacokinetic (PBPK) simulation program has been established. It supports one, two and multi-compartment models. The compartmental model program was designed using Matlab and Simulink to emulate human physiological conditions. With appropriate human physiological parameter input, absorption, distribution, metabolism and excretion profiles of compounds of interest can be estimated in human.
The parameter used for the evaluation is maximum exposure index (MEI), a product of AUC and the highest percentage recorded for Cannabis.

HepG2 cells [2] = assay: rtPCR TaqMan array of cancer pathway genes in treated HepG2 cells; assay type: cell-based, human; conditions: 6 h; CBD 17, CBC 23, CBN 20, 1:1:1 17, sorafenib 12 μg/ml
Method: rt-PCR: Target cancer gene pathways will be analyzed using a custom Taqman array card exploring 91 unique genes involved with a few cancer pathways.
Two million HepG2 cells in IMDM media with 20% FBS, and 1% ethanol were seeded in T75 flasks and incubated at 37° C., 7.5% CO2 until 70-80% confluent (approx. […]). The media were replenished with media containing individual cannabinoids (CBD 17 μg/ml, CBC 23 μg/ml, CBN 20 μg/ml) and cannabinoid mixture of CBD:CBC:CBN of 1:1:1 (17 μg/ml) and incubated for 6 hours prior to harvest. […] Untreated cells were included as a negative control Glyceraldehyde-3-phosphate dehydrogenase (GAPDH) was included as an endogenous control and used for normalization of the data.
RNA was extracted using Invitrogen's Dynabead mRNA DIRECT kit using the recommended protocol to provide 50 μL of a purified mRNA solution. […] of RT master mix was mixed into the mRNA solution and the mixture left to react at 37° C. for 60 minutes. Reverse transcriptase inactivation was performed at 95° C. for 5 minutes and the resulting cDNA samples were kept at 4° C. until use. Fifty-five microliters of TaqMan Fast Advance master mix were added to an equal amount of cDNA sample containing 1 μg/100 μl of cDNA, which was loaded into each card reservoir. The cards were centrifuged twice at 1200 RPM for 3 minutes in a Legend XFR centrifuge and the rtPCR reaction was conducted in a QuantStudio7 PCR instrument using the standard settings with 40 amplification cycles.
Assessment of cancer gene pathways were carried out using custom designed TaqMan array cards exploring 86 genes linked to numerous cancer related pathways. […] In addition to individual pathways, genes linked to specific cellular processes were also explored.

HepG2 cells [3] = assay: In-cell Western-blot protein expression in treated HepG2 cells; assay type: cell-based, human; conditions: six hour treatment; CBD 17, CBC 23, CBN 20, Sorafenib 12, SCI-111 17, SCI-521 17 μg/ml
Method: In-cell Western-blot analysis: Protein expression was assessed by seeding 1000 HepG2 cells/well from cyro frozen stocks into 384 well optical bottom black culture plates from Thermo-Scientific (item 142761) in IMDM media with 20% FBS and 1% ethanol. […] After a six hour treatment, the cells were fixated with 4% formaldehyde for 15 minutes, permeated with 0.1% triton-x100 for 10 minutes, and left in blocking buffer (phosphate buffered saline (PBS) with 3% bovine serum albumin (BSA)) overnight at 4 degrees Celsius. The following day, the cells were rinsed with PBS, incubated with 25 μl PBS containing primary antibody (Table 1) for 3 hours at 25° C. Subsequently, the primary antibody was removed, cells were rinsed twice with PBS, and incubated with 25 μl of PBS containing the secondary antibody (Rabbit: Alexa Fluor 790 donkey anti-rabbit IgG (H+L) Lot 2409042; Mouse: Alexa Fluor 790 donkey anti-mouse IgG (H+L) Lot 2300923) at a concentration of 1:2000. Draq5 (1:2000) was added for normalization of data. After an hour incubation in the secondary antibody, the cells were rinsed with PBS and readings at 700 and 800 nm were acquired on a Licor Odyssey fluorescence imager with a resolution of 21 μm. Analysis was subsequently performed with Empiria Studio 2.1. A total of 5 samples were collected per antibody and the sample size was reduced to 3 for the statistical analysis.

[4] = known human values; cited from earlier work

## CCCCCc1cc(O)c(C/C=C(\C)CCC=C(C)C)c(O)c1 [Cannabigerol (CBG), Cannabigerol]
[1]
  MEI, AUC* % mass: 4.89

## CC1(C)C2CCC1(C)C(O)C2 (centres unmarked) [Borneol]
[1]
  MEI, AUC* % mass: 0.10

## CCCCCc1cc(O)c2c(c1)OC(C)(CCC=C(C)C)C=C2 (centres unmarked) [CBC, Cannabichromene]
HepG2 cells [2]
  rtPCR Log2 fold change relative to untreated cells, AKT1 (PI3K/AKT/MTOR): −1.915 Log2 fold change
  rtPCR Log2 fold change relative to untreated cells, APFAF1 (Apoptosis): −1.945 Log2 fold change
  rtPCR Log2 fold change relative to untreated cells, BAD (Apoptosis): −2.917 Log2 fold change
  rtPCR Log2 fold change relative to untreated cells, BAX (Apoptosis): −2.332 Log2 fold change
  rtPCR Log2 fold change relative to untreated cells, BCL2 (Apoptosis): 3.95 Log2 fold change
  rtPCR Log2 fold change relative to untreated cells, BCL2L1 (Apoptosis): −1.241 Log2 fold change
  rtPCR Log2 fold change relative to untreated cells, CAMK1 (Ca signaling): −2.15 Log2 fold change
  rtPCR Log2 fold change relative to untreated cells, CCND1 (Cell Cycle Arrest): −1.206 Log2 fold change
  rtPCR Log2 fold change relative to untreated cells, CDK1 (Cell Cycle Arrest): −1.725 Log2 fold change
  rtPCR Log2 fold change relative to untreated cells, CDK2 (Cell Cycle Arrest): −1.316 Log2 fold change
  rtPCR Log2 fold change relative to untreated cells, CDK4 (Cell Cycle Arrest): −1.914 Log2 fold change
  rtPCR Log2 fold change relative to untreated cells, CDK6 (Cell Cycle Arrest): −1.735 Log2 fold change
  rtPCR Log2 fold change relative to untreated cells, CRK - p38 (Cellular Adhesion): −1.414 Log2 fold change
  rtPCR Log2 fold change relative to untreated cells, CTNNB1 (Cellular Adhesion): −1.487 Log2 fold change
  rtPCR Log2 fold change relative to untreated cells, ELK1 (Ca signaling): −3.143 Log2 fold change
  rtPCR Log2 fold change relative to untreated cells, GSK3B (Cellular Adhesion): −1.728 Log2 fold change
  rtPCR Log2 fold change relative to untreated cells, MAP1LC3A (MAP kinase): −2.006 Log2 fold change
  rtPCR Log2 fold change relative to untreated cells, MAP2K1 (MAP kinase): −2.534 Log2 fold change
  rtPCR Log2 fold change relative to untreated cells, MAPK8 (MAP kinase): −2.068 Log2 fold change
  rtPCR Log2 fold change relative to untreated cells, MITF (Drug Resistance): −4.421 Log2 fold change
  rtPCR Log2 fold change relative to untreated cells, MNT (Cell Cycle Arrest): −2.804 Log2 fold change
  rtPCR Log2 fold change relative to untreated cells, MTOR (PI3K/AKT/MTOR): −1.847 Log2 fold change
  rtPCR Log2 fold change relative to untreated cells, NOTCH1 (NOTCH): −1.949 Log2 fold change
  rtPCR Log2 fold change relative to untreated cells, PAK3 (P21) (Cell Cycle Arrest): −1.643 Log2 fold change
  rtPCR Log2 fold change relative to untreated cells, PIK3C2A (PI3K/AKT/MTOR): −1.77 Log2 fold change
  rtPCR Log2 fold change relative to untreated cells, PIK3R5 (PI3K/AKT/MTOR): −1.821 Log2 fold change
  rtPCR Log2 fold change relative to untreated cells, RAC1 (MAP kinase): −1.422 Log2 fold change
  rtPCR Log2 fold change relative to untreated cells, RASA1 (MAP kinase): −1.307 Log2 fold change
  rtPCR Log2 fold change relative to untreated cells, RASSF1 (MAP kinase): −1.813 Log2 fold change
  rtPCR Log2 fold change relative to untreated cells, ROCK1 (Cellular Adhesion): −1.213 Log2 fold change
  rtPCR Log2 fold change relative to untreated cells, SMAD2 (TGF signaling): −1.617 Log2 fold change
  rtPCR Log2 fold change relative to untreated cells, SMAD3 (TGF signaling): −2.487 Log2 fold change
  rtPCR Log2 fold change relative to untreated cells, STAT1 (JAK-STAT): −2.228 Log2 fold change
  rtPCR Log2 fold change relative to untreated cells, STAT5A (JAK-STAT): −1.559 Log2 fold change
  rtPCR Log2 fold change relative to untreated cells, SUFU (Hedgehog): −1.668 Log2 fold change
  rtPCR Log2 fold change relative to untreated cells, TAZ (HIPPO): −1.874 Log2 fold change
  rtPCR Log2 fold change relative to untreated cells, gene name not printed (Angiogenesis, row r45): −1.521 Log2 fold change
  rtPCR Log2 fold change relative to untreated cells, gene name not printed (Cell Cycle Arrest, row r42): −2.312 Log2 fold change
  rtPCR Log2 fold change relative to untreated cells, gene name not printed (Cellular Adhesion, row r57): −1.865 Log2 fold change
  rtPCR Log2 fold change relative to untreated cells, gene name not printed (HIPPO, row r33): −1.568 Log2 fold change
  rtPCR Log2 fold change relative to untreated cells, gene name not printed (PI3K/AKT/MTOR, row r20): −2.204 Log2 fold change
  rtPCR Log2 fold change relative to untreated cells, gene name not printed (PI3K/AKT/MTOR, row r22): −2.291 Log2 fold change
  rtPCR Log2 fold change relative to untreated cells, gene name not printed (Receptors, row r7): −2.51 Log2 fold change
HepG2 cells [3]
  Protein fold change, DVLD (Cellular Adhesion): 1.34 Fold change
  Protein fold change, MEK (MAP kinase/PI3K): 1.22 Fold change
  Protein fold change, MEK PO4 (MAP kinase/PI3K): 1.68 Fold change
  Protein fold change, MET PO4 (Receptor): 1.80 Fold change
  Protein fold change, PTEN PO4 (MAP kinase/PI3K): 1.40 Fold change
  Protein fold change, TEAD2 (HIPPO signaling): 1.34 Fold change
  Protein fold change, c-MYC (Apoptosis): 1.70 Fold change
  Protein fold change, p53 (Apoptosis): 1.26 Fold change

## C=CC(C)(O)CCC=C(C)C (centres unmarked) [Linalool]
[1]
  MEI, AUC* % mass: 0.03

## Cc1ncc2n1-c1ccc(Cl)cc1C(c1ccccc1F)=NC2 [midazolam]
[4]
  Hepatic extraction ratio (E): 0.5

## CC1=CCC2CC1C2(C)C (stereo not drawn) [α-pinene]
[1]
  MEI, AUC* % mass: 65.77

## CCCCCc1cc(O)c2c(c1)OC(C)(C)c1ccc(C)cc1-2 [CBN, Cannabinol]
HepG2 cells [2]
  rtPCR Log2 fold change relative to untreated cells, BAD (Apoptosis): −1.041 Log2 fold change
  rtPCR Log2 fold change relative to untreated cells, ELK1 (Ca signaling): −1.026 Log2 fold change
  rtPCR Log2 fold change relative to untreated cells, MAP3K (MAP kinase): 1.518 Log2 fold change
  rtPCR Log2 fold change relative to untreated cells, MAPK8 (MAP kinase): −1.284 Log2 fold change
  rtPCR Log2 fold change relative to untreated cells, NOTCH1 (NOTCH): −1.084 Log2 fold change
  rtPCR Log2 fold change relative to untreated cells, PIK3C2A (PI3K/AKT/MTOR): −1.181 Log2 fold change
  rtPCR Log2 fold change relative to untreated cells, PIK3R5 (PI3K/AKT/MTOR): −2.689 Log2 fold change
  rtPCR Log2 fold change relative to untreated cells, PPARG (Receptors): 2.204 Log2 fold change
  rtPCR Log2 fold change relative to untreated cells, SMAD3 (TGF signaling): −3.711 Log2 fold change
  rtPCR Log2 fold change relative to untreated cells, SMO (Hedgehog): 2.336 Log2 fold change
  rtPCR Log2 fold change relative to untreated cells, TAZ (HIPPO): −1.143 Log2 fold change
HepG2 cells [3]
  Protein fold change, DVLD (Cellular Adhesion): 1.66 Fold change
  Protein fold change, MEK PO4 (MAP kinase/PI3K): 1.33 Fold change
  Protein fold change, PI3K (MAP kinase/PI3K): 1.46 Fold change
  Protein fold change, TEAD2 (HIPPO signaling): 1.35 Fold change
  Protein fold change, c-MYC (Apoptosis): 1.40 Fold change
  Protein fold change, p53 (Apoptosis): 1.22 Fold change

## Cc1cc(=O)n(-c2ccccc2)n1C [antipyrine]
[4]
  Hepatic extraction ratio (E): 0.1
